Values joined by “and” are separate entries in the source; they are usually repeats but may differ in a detail not shown here. Identical values can stand only once.
What was measured:
Format in all cases: cell-based, horse
[1] = system: primary EMM cells MelDuWi; experiment: MTS cytotoxicity assay; conditions: for IC50: mean (95% CI)
Description: (§1) All cells used for the experiments originate from different horses. Primary EMM cells (MelDuWi) and primary equine dermal fibroblasts (PriFi1, PriFi2) belong to the cell culture stock of the Clinic for Horses, University of Veterinary Medicine Hannover, Foundation, Hannover, Germany.
(§2) The cytotoxicity of the compounds was assessed by the CellTiter 96® AQueous One Solution Cell Proliferation Assay (MTS) (Promega GmbH, Mannheim, Germany) as reported. In brief, in order to reach cell confluence within 48 h, cells were seeded into 96-well plates in adequate densities (MelDuWi 30,000 cells/well; PriFi1, PriFi2, eRGO1 20,000 cells/well; sRGO1and sRGO2 15,000 cells/well). […] The formazan dye generated by the metabolic active cells was quantified photometrically. Cytotoxicity assays were performed in six to nine biological replicates with two technical replicates for each combination of cell type, incubation time and compound concentration.
(§3) Technical duplicates with a coefficient of variation of more than 20% were excluded from the cell assay analysis. […] Additional statistical data analysis was conducted with R 3.5.1.. A generalized additive model was fitted for each test (MTS and CVS) and cell type comparison (primary EMM cells and fibroblasts, and primary ES cells and fibroblasts) using the ‘mgcv’ package. Compound concentrations and the duration of incubation were modeled as tensor product smooth interacting with compound and cell line. Cell passage was added as a random effect. An appropriate distribution was selected by the visual inspection of residuals. The p-values were obtained by performing a Wald test for each parameter. Statistical significance was set at 0.05.

[2] = system: primary EMM cells eRGO1; experiment: MTS cytotoxicity assay; conditions: for IC50: mean (95% CI)
Description: as §1, §2, §3

[3] = system: primary ES cells sRGO1; experiment: MTS cytotoxicity assay; conditions: for IC50: mean (95% CI)
Description: as §1, §2, §3

[4] = system: primary ES cells sRGO2; experiment: MTS cytotoxicity assay; conditions: for IC50: mean (95% CI)
Description: as §1, §2, §3

[5] = system: primary equine dermal fibroblasts PriFi1; experiment: MTS cytotoxicity assay; conditions: for IC50: mean (95% CI)
Description: as §1, §2, §3

[6] = system: primary equine dermal fibroblasts PriFi2; experiment: MTS cytotoxicity assay; conditions: for IC50: mean (95% CI)
Description: as §1, §2, §3

[7] = system: EMM cells MelDuWi; experiment: cell cycle investigation by flow cytometry (propidium iodide); conditions: double IC50 concentration
Description: (§4) Approximately 7.5 × 10^5 cells (MelDuWi) and 1.0 × 10^6 cells (PriFri2 and sRGO2) were seeded in 25 cm^2 cell culture flasks. […] Following 24 and 48 h of incubation, the cells were harvested by mild trypsinization and washed twice with phosphate-buffered saline (PBS) buffer (containing Mg^2+ and Ca^2+). Cells (1.0 × 10^6) were fixed with ethanol (70%, -20°C, for 24 h). After discarding the ethanol, the cells were washed in 1 mL PBS buffer (containing Mg^2+ and Ca^2+) and were centrifuged. The cell pellet was resuspended in 1 mL of staining PBS buffer (containing Mg^2+ and Ca^2+, 10 μg/mL RNASe [Thermofisher] and 15 μg/mL propidium iodide [Sigma-Aldrich, Munich, Germany]) and was incubated for 30 min at room temperature. Analyses were performed using the Attune® FACS machine (Life Technologies, Darmstadt, Germany) collecting data from the BL-2A channel. Doublet cells were excluded from the measurements by plotting BL-2A against BL-2H. A total of 20,000 events were collected for each cell cycle distribution. Each sample was measured in duplicate.

[8] = system: ES cells sRGO2; experiment: as above; conditions: double IC50 concentration
Description: as §4

[9] = system: equine dermal fibroblasts PriFri2; experiment: as above; conditions: double IC50 concentration
Description: as §4

[10] = system: EMM cells MelDuWi; experiment: AnnexinV-FITC/propidium iodide staining, flow cytometry; conditions: double IC50 concentration
Description: Approximately 7.5 × 10^5 cells (MelDuWi) and 1.0 × 10^6 cells (PriFri2 and sRGO2) were seeded in 25 cm^2 cell culture flasks. […] Following 24 and 48 h of incubation, cells were harvested by mild trypsinization and washed twice with PBS buffer (containing Mg^2+ and Ca^2+). Cells (1.0 × 10^6) were resuspended in AnnexinV binding buffer (BioLegend®, San Diego, US) to a concentration of 1.0 ‧ 10^6 cells/mL. Approximately 100,000 cells were stained with propidium iodide solution ([…], 1 mg/mL) and FITC AnnexinV solution ([…], BioLegend®) for 15 min in the dark at room temperature. After the addition of Annexin V binding buffer ([…]), the suspension was analyzed using the Attune® FACS machine (Life Technologies). After gating for living cells, the data from detectors BL-1A and BL-3A were collected. A total of 20,000 events were collected from each sample and technical duplicates were measured.

## C=C(C)[C@@H]1CC[C@]2(COS(N)(=O)=O)CC[C@]3(C)[C@H](CC[C@@H]4[C@@]5(C)CC[C@H](OS(N)(=O)=O)C(C)(C)[C@@H]5CC[C@]43C)[C@@H]12 [BBS, (3β)-Lup-20(29)-ene-3,28-diol, 3,28-disulfamate]
[1]; 5 h
  IC50: > 100 µM
[1]; 24 h
  IC50: 60 µM
[1]; 48 h
  IC50: 53 µM
[1]; 96 h
  IC50: 32 µM
[2]; eRGO1, 5 h
  IC50: > 100 µM
[2]; eRGO1, 24 h
  IC50: 47 µM
[2]; eRGO1, 48 h
  IC50: 32 µM
[2]; eRGO1, 96 h
  IC50: 16 µM
[3]; sRGO1, 5 h
  IC50: > 100 µM
[3]; sRGO1, 48 h
  IC50: 25 µM
[4]; sRGO2, 5 h
  IC50: > 100 µM
[4]; sRGO2, 24 h
  IC50: 45 µM
[4]; sRGO2, 48 h
  IC50: 28 µM
[5]; PriFi1, 5 h
  IC50: > 100 µM
[5]; PriFi1, 24 h
  IC50: 59 µM
[5]; PriFi1, 48 h
  IC50: 35 µM
[5]; PriFi1, 96 h
  IC50: 28 µM
[6]; PriFi2, 5 h
  IC50: > 100 µM
[6]; PriFi2, 24 h
  IC50: 77 µM
[6]; PriFi2, 48 h
  IC50: 61 µM
[6]; PriFi2, 96 h
  IC50: 20 µM
[7]; 24 h
  Cell cycle percentage G1/G0: 68,2%
  Cell cycle percentage M: 0,5%
  Cell cycle percentage S: 23,9%
  Cell cycle percentage SubG1: 6,7%
[7]; 48 h
  Cell cycle percentage G1/G0: 48,2%
  Cell cycle percentage M: 0,3%
  Cell cycle percentage S: 7,6%
[8]; sRGO2, 24 h
  Cell cycle percentage G1/G0: 71,9%
  Cell cycle percentage M: 1,6%
  Cell cycle percentage S: 21,8%
  Cell cycle percentage SubG1: 5,3%
[8]; sRGO2, 48 h
  Cell cycle percentage G1/G0: 63,2%
  Cell cycle percentage M: 1,8%
  Cell cycle percentage S: 16,7%
  Cell cycle percentage SubG1: 17,5%
[9]; PriFri2, 24 h
  Cell cycle percentage G1/G0: 79,1%
  Cell cycle percentage M: 1,0%
  Cell cycle percentage S: 12,1%
  Cell cycle percentage SubG1: 7,1%
[9]; PriFri2, 48 h
  Cell cycle percentage G1/G0: 73,7%
  Cell cycle percentage M: 0,9%
  Cell cycle percentage S: 10,8%
  Cell cycle percentage SubG1: 13,7%
[10]; 24 h
  AnnexinV staining: Living cells: 77,8%
  AnnexinV staining: early apop: 6,3%
  AnnexinV staining: late apop: 15,4%
  AnnexinV staining: necrotic: 0,6%
[10]; 48 h
  AnnexinV staining: Living cells: 60,6%
  AnnexinV staining: early apop: 7,5%
  AnnexinV staining: late apop: 28.2%
  AnnexinV staining: necrotic: 3,7%

## C=C(C)[C@@H]1CC[C@]2(C(=O)OCC(N)(CO)CO)CC[C@]3(C)[C@H](CC[C@@H]4[C@@]5(C)CC[C@H](OC(C)=O)C(C)(C)[C@@H]5CC[C@]43C)[C@@H]12 [NVX-207, 3-acetyl-betulinic acid-2-amino-3-hydroxy-2-hydroxymethyl-propanoate]
[1]; 24 h
  IC50: 18 µM
[1]; 48 h
  IC50: 15 µM
[1]; 96 h
  IC50: 8 µM
[1]; after 48 h, MTS
  times more cytotoxic than BBS: ~3 times
[2]; eRGO1, 5 h
  IC50: 9 µM
[2]; eRGO1, 24 h
  IC50: 7 µM
[2]; eRGO1, 48 h
  IC50: 4 µM
[2]; eRGO1, 96 h
  IC50: < 1 µM
[2]; eRGO1, after 48 h, MTS
  times more cytotoxic than BBS: ~8 times
[3]; sRGO1, 5 h
  IC50: 9 µM
[3]; sRGO1, 24 h
  IC50: 4 µM
[3]; sRGO1, 48 h
  IC50: 2 µM
[3]; sRGO1, after 48 h, MTS
  times more cytotoxic than BBS: about 11 times
[4]; sRGO2, 5 h
  IC50: 8 µM
[4]; sRGO2, 24 h
  IC50: 3 µM
[4]; sRGO2, 48 h
  IC50: 1 µM
[4]; sRGO2, after 48 h, MTS
  times more cytotoxic than BBS: about 25 times
[5]; PriFi1, 5 h
  IC50: 11 µM
[5]; PriFi1, 24 h
  IC50: 4 µM
[5]; PriFi1, 48 h
  IC50: 1 µM
[5]; PriFi1, 96 h
  IC50: < 1 µM
[5]; PriFi1, after 48 h, MTS
  times more cytotoxic than BBS: ~34 times
[6]; PriFi2, 5 h
  IC50: 20 µM
[6]; PriFi2, 24 h
  IC50: 7 µM
[6]; PriFi2, 96 h
  IC50: 4 µM
[6]; PriFi2, after 48 h, MTS
  times more cytotoxic than BBS: ~9 times
[7]; 24 h
  Cell cycle percentage G1/G0: 77,4%
  Cell cycle percentage M: 0,8%
  Cell cycle percentage S: 14,4%
  Cell cycle percentage SubG1: 7,1%
[7]; 48 h
  Cell cycle percentage G1/G0: 26,8%
  Cell cycle percentage M: 0,3%
  Cell cycle percentage S: 12,9%
[8]; sRGO2, 24 h
  Cell cycle percentage G1/G0: 76,6%
  Cell cycle percentage M: 6,4%
  Cell cycle percentage S: 15,8%
  Cell cycle percentage SubG1: 0,6%
[8]; sRGO2, 48 h
  Cell cycle percentage G1/G0: 64,5%
  Cell cycle percentage M: 3,9%
  Cell cycle percentage S: 13,7%
  Cell cycle percentage SubG1: 17,1%
[9]; PriFri2, 24 h
  Cell cycle percentage G1/G0: 43,1%
  Cell cycle percentage M: 1,3%
  Cell cycle percentage S: 10,8%
  Cell cycle percentage SubG1: 44,1%
[9]; PriFri2, 48 h
  Cell cycle percentage G1/G0: 14,8%
  Cell cycle percentage M: 0,1%
  Cell cycle percentage S: 2,9%
  Cell cycle percentage SubG1: 81,9%
[10]; 24 h
  AnnexinV staining: Living cells: 48,9%
  AnnexinV staining: early apop: 20,0%
  AnnexinV staining: late apop: 30,8%
  AnnexinV staining: necrotic: 0,3%
[10]; 48 h
  AnnexinV staining: Living cells: 29,8%
  AnnexinV staining: early apop: 24,3%
  AnnexinV staining: late apop: 45% and 44.8%

Reference: publication PMC7643960 (PLoS ONE, 2020)
